According to US10556907B2 (AbbVie Inc., priority 2015, dated 2020):
Read-outs that look alike come from different tables or passages of the source.

Columns and labels:
Assay in all cases: Method 1: intracellular Ca2+ release (FLIPR, Calcium 5) in recombinant CHO-K1 cells
Assay type in all cases: cell-based
human S1PR1 receptor = target: T1, human S1PR1 receptor (Homo sapiens, UniProt P21453); conditions: (1): determined with method 1; read-out: S1P1 EC50
T1 construct: host or cells: CHO-K1
Description: (§1) Agonistic activity was measured using two different methods, described below.
(§2) Method 1. Intracellular Ca^2+ Release
(§3) Agonist potency and intrinsic activity was assessed by measurement of intracellular Ca^2+ release. Recombinant CHO-K1 cells (Euroscreen, Brussels, Belgium) expressing human S1PR5, S1PR1, S1PR3 or S1PR4 receptors, aequorin, and GTP binding protein Gq/i5 were cultured using a medium containing nutrient mixture F-12 Ham (Sigma-Aldrich) with 10% FBS, and 100 μg/mL gentamicin and equilibrated at 5% CO2.
(§4) 15.000 cells in 20 μL medium were seeded into Biocoat poly-D-Lysine coated 384 well plates (Becton Dickinson #35-6663) and grown to 95% confluency after 24 h.
(§5) Culture medium was replaced by an assay buffer consisting of HBBS with Ca^2+ and Mg^2+ (Invitrogen #14025-050), 20 mmol/L Hepes (Sigma-Aldrich #H-3375), 2.5 mmol/L probenecid (Sigma-Aldrich #P-8761, and 0.1% BSA (Sigma-Aldrich #A-7030) pH 7.4. The Calcium 5 no-wash FLIPR assay kit (Molecular Devices #5000625) was performed as described in the kit instructions. Cells were incubated with Calcium 5 dye for 1 h at 37° C., 5% CO2 in the dark. After 45 min adaptation to RT assessment of agonist stimulation of intracellular Ca^2+ release was performed by addition of test compounds at concentrations obtained by serial dilution. Phospho-fingolimod was used as positive control. Antagonists were pre-incubated for 10 min with cells before addition of the agonist (phospho-fingolimod at EC80). Measurements were performed using a fluorometric imaging plate reader FLIPR® tetra (Molecular Devices). Agonist at the human S1P receptors were characterized by deducing EC50 (potency) values from a nonlinear fit to the measured fluorescence raw data after normalization to the reference agonist (phospho-fingolimod) curve.

human S1PR5 receptor = target: T2, human S1PR5 receptor (Homo sapiens, UniProt Q9H228)
T2 construct: host or cells: CHO-K1
Description: as §1, §2, §3, §4, §5

human S1PR3 receptor = target: T3, human S1PR3 receptor (Homo sapiens, UniProt Q99500); conditions: (1): determined with method 1; read-out: S1P3 EC50
T3 construct: host or cells: CHO-K1
Description: as §1, §2, §3, §4, §5

[1] = agonist potency, determined with method 1 (symbols A-D), read-out: S1P5 EC50 range

T3 sequence (Q99500 whole entry): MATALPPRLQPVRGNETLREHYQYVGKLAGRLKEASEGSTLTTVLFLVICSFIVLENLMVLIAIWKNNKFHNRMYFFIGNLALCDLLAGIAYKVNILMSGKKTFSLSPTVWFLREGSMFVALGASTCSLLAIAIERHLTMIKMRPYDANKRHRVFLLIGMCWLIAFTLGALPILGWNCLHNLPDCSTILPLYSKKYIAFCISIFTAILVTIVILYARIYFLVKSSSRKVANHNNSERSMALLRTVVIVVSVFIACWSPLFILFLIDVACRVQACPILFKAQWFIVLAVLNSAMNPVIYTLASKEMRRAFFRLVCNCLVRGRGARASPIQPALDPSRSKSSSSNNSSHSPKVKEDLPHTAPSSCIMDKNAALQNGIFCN
T2 sequence (Q9H228 whole entry): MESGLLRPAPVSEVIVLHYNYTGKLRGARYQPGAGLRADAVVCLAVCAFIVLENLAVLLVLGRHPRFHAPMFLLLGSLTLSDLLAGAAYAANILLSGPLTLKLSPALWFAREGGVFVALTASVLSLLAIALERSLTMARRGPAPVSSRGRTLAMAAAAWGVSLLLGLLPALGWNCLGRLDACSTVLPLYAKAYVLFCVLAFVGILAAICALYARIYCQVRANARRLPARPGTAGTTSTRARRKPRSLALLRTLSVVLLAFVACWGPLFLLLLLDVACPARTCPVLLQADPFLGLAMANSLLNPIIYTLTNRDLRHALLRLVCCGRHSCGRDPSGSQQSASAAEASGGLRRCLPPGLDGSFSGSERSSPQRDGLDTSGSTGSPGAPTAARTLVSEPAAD
T1 sequence (P21453 whole entry): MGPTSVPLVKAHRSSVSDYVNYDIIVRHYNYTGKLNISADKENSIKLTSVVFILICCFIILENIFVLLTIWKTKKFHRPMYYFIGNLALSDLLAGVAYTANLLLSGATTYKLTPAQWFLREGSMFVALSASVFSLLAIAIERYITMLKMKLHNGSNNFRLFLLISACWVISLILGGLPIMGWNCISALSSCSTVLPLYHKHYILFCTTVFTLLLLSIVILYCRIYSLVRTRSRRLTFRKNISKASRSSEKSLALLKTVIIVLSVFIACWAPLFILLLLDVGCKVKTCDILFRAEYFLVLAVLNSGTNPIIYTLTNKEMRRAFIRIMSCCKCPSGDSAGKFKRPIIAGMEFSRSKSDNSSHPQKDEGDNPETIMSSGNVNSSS

## O=C(O)CCN1CCc2nc(-c3ccc(OCc4cccc(Cl)c4)cc3)ncc2C1 [Compound 72, 3-(2-(4-((3-chlorobenzyl)oxy)phenyl)-7,8-dihydropyrido[4,3-d]pyrimidin-6(5H)-yl)propanoic acid]
Human S1PR1 receptor
  EC50: > 1000 nM
Human S1PR5 receptor; [1]
  EC50: < 10 nM
Human S1PR3 receptor
  EC50: > 1000 nM

## O=C(O)CCCN1CCc2nc(C#Cc3cc(F)ccc3F)ncc2C1 [Compound 49, 4-(2-((2,5-difluorophenyl)ethynyl)-7,8-dihydropyrido[4,3-d]pyrimidin-6(5H)-yl)butanoic acid]
Human S1PR1 receptor
  EC50: > 1000 nM
Human S1PR5 receptor; [1]
  EC50: 1000 to 10000 nM
Human S1PR3 receptor
  EC50: > 1000 nM

## O=C(O)CC1(CN2CCc3nc(-c4ccc(OCc5ccc(Cl)cc5)cc4)ncc3C2)CC1 [Compound 286, 2-((4(2-(4-((4-chlorobenzyl)oxy)phenyl)-7,8-dihydropyrido[4,3-d]pyrimidin-6(5H)-yl)methyl)cyclopropyl)acetic acid]
Human S1PR5 receptor; [1]
  EC50: 100 to 1000 nM

## CC(CN1CCc2nc(-c3ccc(OCc4ccccc4)c(F)c3)ccc2C1)C(=O)O (stereo not shown) [Compound 103, 3-(2-(4-(benzyloxy)-3-fluorophenyl)-7,8-dihydro-1,6-naphthyridin-6(5H)-yl)-2-methylpropanoic acid]
Human S1PR1 receptor
  EC50: > 1000 nM
Human S1PR5 receptor; [1]
  EC50: 10 to 100 nM
Human S1PR3 receptor
  EC50: > 1000 nM

## CC(CN1CCc2nc(-c3ccc(OCc4ccccc4)cc3Cl)ccc2C1)C(=O)O (stereo not shown) [Compound 108, 3-(2-(4-(benzyloxy)-2-chlorophenyl)-7,8-dihydro-1,6-naphthyridin-6(5H)-yl)-2-methylpropanoic acid]
Human S1PR1 receptor
  EC50: > 1000 nM
Human S1PR5 receptor; [1]
  EC50: 100 to 1000 nM
Human S1PR3 receptor
  EC50: > 1000 nM

## O=C(O)CCCN1CCc2nc(-c3ccc(OCc4cccc(F)c4)cc3)ccc2C1 [Compound 116, 4-(2-(4-((3-fluorobenzyl)oxy)phenyl)-7,8-dihydro-1,6-naphthyridin-6(5H)-yl)butanoic acid]
Human S1PR1 receptor
  EC50: > 1000 nM
Human S1PR5 receptor; [1]
  EC50: < 10 nM
Human S1PR3 receptor
  EC50: > 1000 nM

## O=C(O)CCCN1Cc2cnc(-c3ccc(OCc4ccccc4)cc3)nc2C1 [Compound 99, 4-(2-(4-(benzyloxy)phenyl)-5H-pyrrolo[3,4-d]pyrimidin-6(7H)-yl)butanoic acid]
Human S1PR1 receptor
  EC50: > 1000 nM
Human S1PR5 receptor; [1]
  EC50: 1000 to 10000 nM
Human S1PR3 receptor
  EC50: > 1000 nM

## Cc1ccc(C(F)(F)F)cc1COc1ccc(-c2ccc3c(n2)CCN(CCC(=O)O)C3)cc1 [Compound 158, 3-(2-(4-((2-methyl-5-(trifluoromethyl)benzyl)oxy)phenyl)-7,8-dihydro-1,6-naphthyridin-6(5H)-yl)propanoic acid]
Human S1PR1 receptor
  EC50: > 1000 nM
Human S1PR5 receptor; [1]
  EC50: 10 to 100 nM
Human S1PR3 receptor
  EC50: > 1000 nM

## O=C(O)CCN1CCc2nc(-c3ccc(OCc4ccccc4OC(F)F)cc3)ncc2C1 [Compound 90, 3-(2-(4-((2-(difluoromethoxy)benzyl)oxy)phenyl)-7,8-dihydropyrido[4,3-d]pyrimidin-6(5H)-yl)propanoic acid]
Human S1PR1 receptor
  EC50: > 1000 nM
Human S1PR5 receptor; [1]
  EC50: 10 to 100 nM
Human S1PR3 receptor
  EC50: > 1000 nM

## Cc1cc(-c2ccc3c(n2)CCN(CC(=O)O)C3)ccc1OCc1ccc(C(F)(F)F)cc1 [Compound 112, 2-(2-(3-methyl-4-((4-(trifluoromethyl)benzyl)oxy)phenyl)-7,8-dihydro-1,6-naphthyridin-6(5H)-yl)acetic acid]
Human S1PR1 receptor
  EC50: > 1000 nM
Human S1PR5 receptor; [1]
  EC50: 100 to 1000 nM
Human S1PR3 receptor
  EC50: > 1000 nM

## CC(CN1CCc2nc(-c3ccc(OCc4cccc(F)c4)cc3)ccc2C1)C(=O)O (stereo not shown) [Compound 109, 3-(2-(4-((3-fluorobenzyl)oxy)phenyl)-7,8-dihydro-1,6-naphthyridin-6(5H)-yl)-2-methylpropanoic acid]
Human S1PR1 receptor
  EC50: < 1000 nM
Human S1PR5 receptor; [1]
  EC50: < 10 nM
Human S1PR3 receptor
  EC50: > 1000 nM

## O=C(O)CCN1CCc2nc(-c3ccc(OCc4cccc(F)c4)cc3)ncc2C1 [Compound 68, 3-(2-(4-((3-fluorobenzyl)oxy)phenyl)-7,8-dihydropyrido[4,3-d]pyrimidin-6(5H)-yl)propanoic acid]
Human S1PR1 receptor
  EC50: > 1000 nM
Human S1PR5 receptor; [1]
  EC50: 10 to 100 nM
Human S1PR3 receptor
  EC50: > 1000 nM

## Cc1cc(-c2ccc3c(n2)CCN(CC(=O)O)C3)ccc1OCc1ccccc1 [Compound 111, 2-(2-(4-(benzyloxy)-3-methylphenyl)-7,8-dihydro-1,6-naphthyridin-6(5H)-yl)acetic acid]
Human S1PR1 receptor
  EC50: > 1000 nM
Human S1PR5 receptor; [1]
  EC50: 100 to 1000 nM
Human S1PR3 receptor
  EC50: > 1000 nM

## CC(CN1CCc2nc(-c3cccc(OCc4ccccc4)c3)ccc2C1)C(=O)O (stereo not shown) [Compound 107]
Human S1PR1 receptor
  EC50: > 1000 nM
Human S1PR5 receptor; [1]
  EC50: 1000 to 10000 nM
Human S1PR3 receptor
  EC50: > 1000 nM

## CC(CN1CCc2nc(-c3ccc(OCc4cccc(Cl)c4)cc3)ncc2C1)C(=O)O (stereo not shown) [Compound 10, 3-(2-(4-((3-chlorobenzyl)oxy)phenyl)-7,8-dihydropyrido[4,3-d]pyrimidin-6(5H)-yl)-2-methylpropanoic acid]
Human S1PR1 receptor
  EC50: > 1000 nM
Human S1PR5 receptor; [1]
  EC50: < 10 nM
Human S1PR3 receptor
  EC50: > 1000 nM

## Cc1cc(-c2ccc3c(n2)CCN(CCC(=O)O)C3)ccc1OCc1ccc(F)cc1 [Compound 168, 3-(2-(4-((4-fluorobenzyl)oxy)-3-methylphenyl)-7,8-dihydro-1,6-naphthyridin-6(5H)-yl)propanoic acid]
Human S1PR1 receptor
  EC50: > 1000 nM
Human S1PR5 receptor; [1]
  EC50: 10 to 100 nM
Human S1PR3 receptor
  EC50: > 1000 nM

## O=C(O)CCCN1CCc2nc(-c3ccc(OCc4cccc(Cl)c4)cc3)ncc2C1 [Compound 38, 4-(2-(4-((3-chlorobenzyl)oxy)phenyl)-7,8-dihydropyrido[4,3-d]pyrimidin-6(5H)-yl)butanoic acid]
Human S1PR1 receptor
  EC50: > 1000 nM
Human S1PR5 receptor; [1]
  EC50: < 10 nM
Human S1PR3 receptor
  EC50: > 1000 nM

## O=C(O)CCN1CCc2nc(-c3ccc(OCc4ccc(C(F)(F)F)cc4)cc3)c(F)cc2C1 [Compound 191, 3-(2-(4-((4-trifluoromethylbenzyl)oxy)phenyl)-3-fluoro-7,8-dihydro-1,6-naphthyridin-6(5H)-yl)propanoic acid]
Human S1PR1 receptor
  EC50: < 1000 nM
Human S1PR5 receptor; [1]
  EC50: < 10 nM
Human S1PR3 receptor
  EC50: > 1000 nM

## CC(C)Oc1ccc(-c2ncc3c(n2)CCN(CCC(=O)O)C3)cc1 [Compound 75, 3-(2-(4-isopropoxyphenyl)-7,8-dihydropyrido[4,3-d]pyrimidin-6(5H)-yl)propanoic acid]
Human S1PR1 receptor
  EC50: > 1000 nM
Human S1PR5 receptor; [1]
  EC50: 1000 to 10000 nM
Human S1PR3 receptor
  EC50: > 1000 nM

## O=C(O)CCN1CCc2nc(-c3ccc(OCc4ccccc4C(F)F)cc3)ncc2C1 [Compound 78, 3-(2-(4-((2-difluoromethylbenzyl)oxy)phenyl)-7,8-dihydropyrido[4,3-d]pyrimidin-6(5H)-yl)propanoic acid]
Human S1PR1 receptor
  EC50: > 1000 nM
Human S1PR5 receptor; [1]
  EC50: < 10 nM
Human S1PR3 receptor
  EC50: > 1000 nM

## O=C(O)CCN1CCc2nc(-c3ccc(OCc4ccccc4OC(F)(F)F)cc3)ncc2C1 [Compound 84, 3-(2-(4-((2-(trifluoromethoxy)benzyl)oxy)phenyl)-7,8-dihydropyrido[4,3-d]pyrimidin-6(5H)-yl)propanoic acid]
Human S1PR1 receptor
  EC50: > 1000 nM
Human S1PR5 receptor; [1]
  EC50: 10 to 100 nM
Human S1PR3 receptor
  EC50: > 1000 nM

## O=C(O)CCN1Cc2ccc(-c3cccc(OCc4cccc(F)c4)c3)nc2C1 [Compound 203, 3-(2-(3-((3-fluorobenzyl)oxy)phenyl)-5H-pyrrolo[3,4-b]pyridin-6(7H)-yl)propanoic acid]
Human S1PR1 receptor
  EC50: > 1000 nM
Human S1PR5 receptor; [1]
  EC50: 1000 to 10000 nM
Human S1PR3 receptor
  EC50: > 1000 nM

## O=C(O)CCN1CCc2nc(-c3ccc(OCc4ccc(C(F)(F)F)cc4)cc3)ccc2C1 [Compound 152, 3-(2-(4-((4-trifluoromethylbenzyl)oxy)phenyl)-7,8-dihydro-1,6-naphthyridin-6(5H)-yl)propanoic acid]
Human S1PR1 receptor
  EC50: > 1000 nM
Human S1PR5 receptor; [1]
  EC50: < 10 nM
Human S1PR3 receptor
  EC50: > 1000 nM

## O=C(O)CCN1CCc2nc(-c3ccc(OCc4ccc(Cl)cc4)cc3)c(F)cc2C1 [Compound 187, 3-(2-(4-((4-chlorobenzyl)oxy)phenyl)-3-fluoro-7,8-dihydro-1,6-naphthyridin-6(5H)-yl)propanoic acid]
Human S1PR1 receptor
  EC50: < 1000 nM
Human S1PR5 receptor; [1]
  EC50: < 10 nM
Human S1PR3 receptor
  EC50: > 1000 nM

## Cc1ccc(COc2ccc(-c3ccc4c(n3)CCN(CCC(=O)O)C4)cc2)cc1C(F)(F)F [Compound 154, 3-(2-(4-((3-trifluoromethyl-4-(methyl)benzyl)oxy)phenyl)-7,8-dihydro-1,6-naphthyridin-6(5H)-yl)propanoic acid]
Human S1PR1 receptor
  EC50: > 1000 nM
Human S1PR5 receptor; [1]
  EC50: 10 to 100 nM
Human S1PR3 receptor
  EC50: > 1000 nM

## CC(CC(=O)O)CN1Cc2cnc(-c3ccc(OCc4ccc(Cl)cc4)cc3)nc2CC12CCC2 (stereo not shown) [Compound 326, 4-(2′-(4-((4-chlorobenzyl)oxy)phenyl)-5′H-spiro[cyclobutane-1,7′-pyrido[4,3-d]pyrimidin]-6′(8′H)-yl)-3-methylbutanoic acid]
Human S1PR5 receptor; (1): determined with method 1, read-out: S1P5 EC50 range (bound printed instead of class symbol)
  EC50: > 1000 nM
Human S1PR3 receptor
  EC50: > 1000 nM

## O=C(O)CC1(CN2CCc3nc(-c4ccc(OCc5cccc(Cl)c5)cc4)ncc3C2)CC1 [Compound 327, 2-((4(2-(4-((3-chlorobenzyl)oxy)phenyl)-7,8-dihydropyrido[4,3-d]pyrimidin-6(5H)-yl)methyl)cyclopropyl)acetic acid]
Human S1PR5 receptor; [1]
  EC50: 1000 to 10000 nM
